Measured values as given in the supplement of paper PMC10307832.

Assays:
Assay in all cases: relative viability (nuclei count vs DMSO), 5 days (fraction); higher = more cells survive
C-75 = compound: CCCCCCCC[C@H]1[C@@H](C(=C)C(=O)O1)C(=O)O [C-75]
In short: (§1)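 A plate was accepted only when its control CV was below 25% and the cells had doubled at least once. Viability is defined from nuclear counts as treated wells divided by vehicle wells, with the median taken across plates. That median covers lung cancer cell lines grown in 1536-well plates, dosed by pinning at five √10-spaced library-drug concentrations, and counted in MetaXpress from 4× Hoechst images after 5 days.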

[1] = compound: O=C(O)c1ccc(-c2c[nH]c3ncc(-c4ccccc4)cc23)cc1C1CCCC1
In short: as §1

AZD7762 = compound: NC(=O)Nc1cc(-c2cccc(F)c2)sc1C(=O)N[C@H]1CCCNC1 [AZD7762]
In short: as §1

Navitoclax = compound: CC1(C)CCC(c2ccc(Cl)cc2)=C(CN2CCN(c3ccc(C(=O)NS(=O)(=O)c4ccc(N[C@H](CCN5CCOCC5)CSc5ccccc5)c(S(=O)(=O)C(F)(F)F)c4)cc3)CC2)C1 [Navitoclax]
In short: as §1

XAV939 = compound: Oc1nc(-c2ccc(C(F)(F)F)cc2)nc2c1CSCC2 [XAV939]
In short: as §1

| Cell Line | relative viability (C-75; 0.08 µM) | relative viability (C-75; 0.253 µM) | relative viability (C-75; 0.8 µM) | relative viability (C-75; 2.53 µM) | relative viability (C-75; 8 µM) | relative viability ([1]; 0.04 µM) | relative viability ([1]; 0.1265 µM) | relative viability ([1]; 0.4 µM) | relative viability ([1]; 1.265 µM) | relative viability (AZD7762; 0.01 µM) | relative viability (AZD7762; 0.03162 µM) | relative viability (AZD7762; 0.1 µM) | relative viability (AZD7762; 0.2 µM, anchor plate) | relative viability (AZD7762; 0.3162 µM) | relative viability (AZD7762; 1 µM) | relative viability (Navitoclax; 0.005 µM) | relative viability (Navitoclax; 0.01581 µM) | relative viability (Navitoclax; 0.05 µM) | relative viability (Navitoclax; 0.1581 µM) | relative viability (Navitoclax; 0.5 µM) | relative viability (Navitoclax; 0.5 µM, anchor plate) | relative viability (XAV939; 0.08 µM) | relative viability (XAV939; 0.253 µM) | relative viability (XAV939; 0.8 µM) | relative viability (XAV939; 2.53 µM) |
| --- | --- | --- | --- | --- | --- | --- | --- | --- | --- | --- | --- | --- | --- | --- | --- | --- | --- | --- | --- | --- | --- | --- | --- | --- | --- |
| 201T | 1.02 | 1.16 | 0.987 | 0.917 | 0.993 | 0.997 | 1.05 | 0.948 | 1 | 0.937 | 1.01 | 1.02 | 0.596 | 0.92 | 0.878 | 1.06 | 1.14 | 0.974 | 0.957 | 1.04 | 1.19 | 0.96 | 0.808 | 0.762 | 0.846 |
| A549 | 0.944 | 1.14 | 0.874 | 0.83 | 0.913 | 0.957 | 1.03 | 0.99 | 0.818 | 1 | 0.982 | 0.994 |  | 0.974 | 0.507 | 0.974 | 1.05 | 0.999 | 0.956 | 0.935 | 1.23 | 1.05 | 0.798 | 0.911 | 0.811 |
| A-427 | 1.05 | 0.938 | 0.948 | 0.847 | 0.82 | 1.03 | 1.11 | 0.998 | 0.888 | 0.988 | 1.02 | 1.03 | 0.784 | 0.852 | 0.419 | 1.02 | 0.977 | 0.959 | 1 | 1.03 | 0.968 | 1.12 | 0.936 | 0.933 | 0.897 |
| ABC-1 | 0.904 | 0.864 | 0.917 | 0.733 | 0.676 | 0.801 | 1.16 | 0.861 | 0.936 | 0.975 | 0.985 | 0.956 | 0.809 | 0.532 | 0.384 | 0.833 | 0.977 | 0.846 | 0.984 | 0.976 |  | 0.927 | 0.847 | 0.677 | 0.568 |
| BEN | 1.11 | 1.02 | 0.898 | 0.756 | 0.817 | 0.931 | 1.08 | 1 | 0.935 | 1.05 | 0.963 | 0.958 | 0.743 | 0.907 | 0.873 | 0.973 | 1.12 | 0.839 | 0.942 |  |  | 1.01 | 0.869 | 0.897 | 0.835 |
| CAL-12T | 1.06 | 1.15 | 0.859 | 0.922 | 1.08 | 1.08 | 1.17 | 0.914 | 0.734 | 0.993 | 0.982 | 1.06 | 0.646 | 0.724 | 0.241 | 0.935 | 1.05 | 1.01 | 0.985 | 1.01 | 1.14 | 1 | 0.884 | 0.877 | 0.814 |
| COR-L23 | 0.965 | 1.04 | 0.945 | 0.778 | 1.06 | 0.921 | 1.01 | 0.973 | 0.723 | 1.1 | 0.912 | 1.17 |  | 0.854 | 0.231 | 0.934 | 1.16 | 1.15 | 0.974 | 0.965 | 1.01 | 1.11 | 0.92 | 1.01 | 0.928 |
| COR-L 105 | 0.939 | 0.876 | 0.877 | 0.755 | 0.801 | 1 | 0.951 | 0.945 | 0.88 | 0.949 | 0.918 | 0.822 |  | 0.613 | 0.502 | 0.808 | 1.21 | 0.965 | 0.98 | 0.922 | 0.841 | 1.03 | 0.857 | 0.78 | 0.6 |
| Calu-6 | 1.03 | 1.02 | 0.964 | 0.912 | 0.948 | 0.982 | 1.01 | 0.955 | 0.78 | 1.05 | 0.992 | 0.873 |  | 0.475 | 0.145 | 0.979 | 1.01 | 1.1 | 0.933 | 0.93 | 0.824 | 1.07 | 0.904 | 0.985 | 0.944 |
| ChaGo-K-1 | 0.93 | 0.98 | 0.931 | 0.799 | 0.966 | 1.05 | 1.01 | 0.896 | 1.02 | 1.01 | 0.969 | 1.06 | 0.873 | 0.905 | 0.841 | 1.03 | 1.01 | 0.727 | 0.961 | 1.04 | 1.09 | 0.978 | 0.894 | 1.03 | 0.973 |
| EBC-1 | 1.04 | 1.08 | 0.956 | 0.84 | 0.757 | 1.02 | 1.14 | 0.923 | 0.633 | 1.1 | 0.98 | 0.993 |  | 0.939 | 0.576 | 0.931 | 1.17 | 0.958 | 1.1 | 0.718 | 0.451 | 1.05 | 0.901 | 0.882 | 0.817 |
| EKVX | 0.971 | 0.967 | 0.847 |  | 1.02 | 0.962 | 1.14 | 1.01 | 0.865 | 0.947 | 1.03 | 0.929 | 0.696 | 0.962 | 0.8 | 1.03 | 1.28 | 0.87 | 0.969 | 0.915 | 0.954 | 1.04 | 0.852 | 0.833 | 0.694 |
| EMC-BAC-2 | 0.959 | 0.952 | 0.908 | 0.828 | 0.921 | 0.993 | 1.04 | 0.974 | 0.899 | 1.05 | 1.02 | 1.05 | 1.17 | 0.995 | 0.975 | 0.924 | 1.02 | 0.981 | 0.932 | 0.976 | 1.16 | 1.01 | 0.969 | 0.869 | 0.655 |
| EPLC-272H | 1.06 | 1.01 | 0.78 | 0.744 | 0.575 | 0.976 | 1.1 | 0.992 | 0.697 | 0.892 | 1.06 | 0.935 | 0.278 | 0.742 | 0.267 | 0.993 |  | 0.888 | 0.922 | 0.921 | 1.13 | 0.95 | 0.97 | 0.92 | 0.957 |
